Assay results: article PMC11345841, “Exploring 2-Sulfonylpyrimidine Warheads as Acrylamide Surrogates for Targeted Covalent Inhibition: A BTK Story” (Journal of Medicinal Chemistry, 2024)
Like-named read-outs stand apart in the source and are kept apart here.

Assays:
[1] = molecular target: T1, ABL1(F317L)-nonphosphorylated (Homo sapiens, UniProt P00519, F317L); assay: KINOMEscan ScanTK; format: binding
T1 construct: purchased Eurofins DiscoverX KINOMEscan (scanTK)

[2] = molecular target: T2, ABL1(Q252H)-nonphosphorylated (Homo sapiens, UniProt P00519, Q252H); assay: KINOMEscan ScanTK; format: binding
T2 construct: purchased Eurofins DiscoverX KINOMEscan (scanTK)

EGFR(G719S) = molecular target: T3, EGFR(G719S) (Homo sapiens, UniProt P00533, G719S); assay: KINOMEscan ScanTK; format: binding
T3 construct: purchased Eurofins DiscoverX KINOMEscan (scanTK)
T3 sequence (P00533 25-1210 G719S): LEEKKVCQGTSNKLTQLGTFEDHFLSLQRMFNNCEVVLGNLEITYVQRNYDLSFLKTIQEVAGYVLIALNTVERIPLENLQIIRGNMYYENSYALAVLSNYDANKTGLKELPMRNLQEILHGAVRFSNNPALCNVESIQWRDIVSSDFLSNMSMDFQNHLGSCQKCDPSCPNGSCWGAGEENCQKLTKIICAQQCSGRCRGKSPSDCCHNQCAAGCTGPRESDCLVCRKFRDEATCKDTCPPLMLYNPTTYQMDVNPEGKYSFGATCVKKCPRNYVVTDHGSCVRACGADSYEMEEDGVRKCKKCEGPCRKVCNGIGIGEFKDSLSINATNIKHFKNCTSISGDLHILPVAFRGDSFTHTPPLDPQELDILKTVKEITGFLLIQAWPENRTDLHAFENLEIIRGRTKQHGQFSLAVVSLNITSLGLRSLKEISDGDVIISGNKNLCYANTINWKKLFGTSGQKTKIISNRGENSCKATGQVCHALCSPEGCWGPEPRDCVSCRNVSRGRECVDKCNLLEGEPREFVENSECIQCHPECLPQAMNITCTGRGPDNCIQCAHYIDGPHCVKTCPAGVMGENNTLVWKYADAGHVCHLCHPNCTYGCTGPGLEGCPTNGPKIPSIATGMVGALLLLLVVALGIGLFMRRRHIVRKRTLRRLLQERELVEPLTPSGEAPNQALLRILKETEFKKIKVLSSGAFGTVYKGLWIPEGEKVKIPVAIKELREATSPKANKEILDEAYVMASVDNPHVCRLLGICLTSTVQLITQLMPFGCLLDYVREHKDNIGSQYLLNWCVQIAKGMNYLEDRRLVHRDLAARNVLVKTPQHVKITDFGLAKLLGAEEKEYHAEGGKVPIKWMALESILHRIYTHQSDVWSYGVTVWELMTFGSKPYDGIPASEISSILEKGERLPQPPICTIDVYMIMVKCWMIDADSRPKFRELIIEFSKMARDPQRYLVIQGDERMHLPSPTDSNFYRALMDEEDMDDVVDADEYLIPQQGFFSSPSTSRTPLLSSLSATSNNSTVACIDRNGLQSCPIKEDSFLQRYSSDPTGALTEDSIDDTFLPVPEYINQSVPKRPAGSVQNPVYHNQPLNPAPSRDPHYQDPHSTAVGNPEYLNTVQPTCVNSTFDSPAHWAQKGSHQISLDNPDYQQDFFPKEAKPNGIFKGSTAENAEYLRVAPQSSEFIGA

EGFR(L747-T751del,Sins) = assay: KINOMEscan ScanTK; format: binding; conditions: for % difference (compound - Ib %Control) / %Control: @1000nM
EPHA8 = molecular target: T4, EPHA8 (Homo sapiens, UniProt P29322); assay: KINOMEscan ScanTK; format: binding
T4 construct: purchased Eurofins DiscoverX KINOMEscan (scanTK)
T4 sequence (P29322 28-1005): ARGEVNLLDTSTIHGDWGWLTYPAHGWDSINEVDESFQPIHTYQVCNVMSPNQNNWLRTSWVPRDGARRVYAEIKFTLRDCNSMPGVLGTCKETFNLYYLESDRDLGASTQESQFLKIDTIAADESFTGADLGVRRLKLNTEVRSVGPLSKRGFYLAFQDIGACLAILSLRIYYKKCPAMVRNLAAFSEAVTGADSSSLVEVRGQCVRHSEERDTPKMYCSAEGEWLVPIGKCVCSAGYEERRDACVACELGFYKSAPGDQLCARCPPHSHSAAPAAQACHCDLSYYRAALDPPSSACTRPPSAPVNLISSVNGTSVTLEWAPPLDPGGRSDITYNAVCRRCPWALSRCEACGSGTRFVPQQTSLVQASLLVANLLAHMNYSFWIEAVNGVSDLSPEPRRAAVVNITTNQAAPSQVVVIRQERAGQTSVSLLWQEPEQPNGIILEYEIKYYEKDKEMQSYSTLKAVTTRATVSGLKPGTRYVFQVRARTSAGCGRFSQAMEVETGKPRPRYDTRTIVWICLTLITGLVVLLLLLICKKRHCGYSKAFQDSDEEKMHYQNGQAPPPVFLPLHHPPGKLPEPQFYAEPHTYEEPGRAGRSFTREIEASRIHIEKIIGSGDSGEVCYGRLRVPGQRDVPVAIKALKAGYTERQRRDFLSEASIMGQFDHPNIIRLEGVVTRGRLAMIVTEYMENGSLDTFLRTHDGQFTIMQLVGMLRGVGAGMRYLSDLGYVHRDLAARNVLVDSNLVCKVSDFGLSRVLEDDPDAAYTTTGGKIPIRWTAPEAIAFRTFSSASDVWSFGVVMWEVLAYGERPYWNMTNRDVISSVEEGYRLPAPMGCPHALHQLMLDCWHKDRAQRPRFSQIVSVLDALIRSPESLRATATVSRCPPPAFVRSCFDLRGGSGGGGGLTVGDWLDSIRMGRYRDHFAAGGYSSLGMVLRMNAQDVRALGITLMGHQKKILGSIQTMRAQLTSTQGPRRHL

EPHB2 = molecular target: T5, EPHB2 (Homo sapiens, UniProt P29323); assay: KINOMEscan ScanTK; format: binding
T5 construct: purchased Eurofins DiscoverX KINOMEscan (scanTK)
T5 sequence (P29323 19-1055): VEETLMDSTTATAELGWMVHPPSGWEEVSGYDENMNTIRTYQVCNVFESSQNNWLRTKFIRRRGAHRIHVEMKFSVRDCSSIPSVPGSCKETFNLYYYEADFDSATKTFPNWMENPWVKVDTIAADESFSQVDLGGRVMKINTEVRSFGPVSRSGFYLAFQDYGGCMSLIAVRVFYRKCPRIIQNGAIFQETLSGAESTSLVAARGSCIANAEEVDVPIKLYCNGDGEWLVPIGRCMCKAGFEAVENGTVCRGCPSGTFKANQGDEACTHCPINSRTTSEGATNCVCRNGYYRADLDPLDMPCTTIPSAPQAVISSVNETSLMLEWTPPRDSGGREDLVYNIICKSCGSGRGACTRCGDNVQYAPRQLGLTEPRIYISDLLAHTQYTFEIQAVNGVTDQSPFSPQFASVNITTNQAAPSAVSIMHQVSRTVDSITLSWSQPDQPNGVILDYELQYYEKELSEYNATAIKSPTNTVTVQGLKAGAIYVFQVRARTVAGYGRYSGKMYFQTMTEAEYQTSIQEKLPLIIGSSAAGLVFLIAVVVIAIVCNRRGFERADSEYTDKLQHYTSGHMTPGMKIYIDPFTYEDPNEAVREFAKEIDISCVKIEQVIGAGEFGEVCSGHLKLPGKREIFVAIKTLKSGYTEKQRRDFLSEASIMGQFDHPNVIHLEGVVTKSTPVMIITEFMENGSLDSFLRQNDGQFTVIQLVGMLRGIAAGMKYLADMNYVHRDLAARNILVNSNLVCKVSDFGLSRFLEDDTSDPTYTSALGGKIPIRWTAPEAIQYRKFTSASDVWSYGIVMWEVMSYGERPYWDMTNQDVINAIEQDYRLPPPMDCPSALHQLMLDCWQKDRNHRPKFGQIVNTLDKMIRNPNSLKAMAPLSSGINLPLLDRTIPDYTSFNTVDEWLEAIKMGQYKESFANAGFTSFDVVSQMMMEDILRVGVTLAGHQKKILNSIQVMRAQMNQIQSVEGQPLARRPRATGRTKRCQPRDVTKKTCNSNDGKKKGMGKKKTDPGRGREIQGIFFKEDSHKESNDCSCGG

MET = molecular target: T6, MET (Homo sapiens, UniProt P08581); assay: KINOMEscan ScanTK; format: binding
T6 construct: purchased Eurofins DiscoverX KINOMEscan (scanTK)
T6 sequence (P08581 25-1390): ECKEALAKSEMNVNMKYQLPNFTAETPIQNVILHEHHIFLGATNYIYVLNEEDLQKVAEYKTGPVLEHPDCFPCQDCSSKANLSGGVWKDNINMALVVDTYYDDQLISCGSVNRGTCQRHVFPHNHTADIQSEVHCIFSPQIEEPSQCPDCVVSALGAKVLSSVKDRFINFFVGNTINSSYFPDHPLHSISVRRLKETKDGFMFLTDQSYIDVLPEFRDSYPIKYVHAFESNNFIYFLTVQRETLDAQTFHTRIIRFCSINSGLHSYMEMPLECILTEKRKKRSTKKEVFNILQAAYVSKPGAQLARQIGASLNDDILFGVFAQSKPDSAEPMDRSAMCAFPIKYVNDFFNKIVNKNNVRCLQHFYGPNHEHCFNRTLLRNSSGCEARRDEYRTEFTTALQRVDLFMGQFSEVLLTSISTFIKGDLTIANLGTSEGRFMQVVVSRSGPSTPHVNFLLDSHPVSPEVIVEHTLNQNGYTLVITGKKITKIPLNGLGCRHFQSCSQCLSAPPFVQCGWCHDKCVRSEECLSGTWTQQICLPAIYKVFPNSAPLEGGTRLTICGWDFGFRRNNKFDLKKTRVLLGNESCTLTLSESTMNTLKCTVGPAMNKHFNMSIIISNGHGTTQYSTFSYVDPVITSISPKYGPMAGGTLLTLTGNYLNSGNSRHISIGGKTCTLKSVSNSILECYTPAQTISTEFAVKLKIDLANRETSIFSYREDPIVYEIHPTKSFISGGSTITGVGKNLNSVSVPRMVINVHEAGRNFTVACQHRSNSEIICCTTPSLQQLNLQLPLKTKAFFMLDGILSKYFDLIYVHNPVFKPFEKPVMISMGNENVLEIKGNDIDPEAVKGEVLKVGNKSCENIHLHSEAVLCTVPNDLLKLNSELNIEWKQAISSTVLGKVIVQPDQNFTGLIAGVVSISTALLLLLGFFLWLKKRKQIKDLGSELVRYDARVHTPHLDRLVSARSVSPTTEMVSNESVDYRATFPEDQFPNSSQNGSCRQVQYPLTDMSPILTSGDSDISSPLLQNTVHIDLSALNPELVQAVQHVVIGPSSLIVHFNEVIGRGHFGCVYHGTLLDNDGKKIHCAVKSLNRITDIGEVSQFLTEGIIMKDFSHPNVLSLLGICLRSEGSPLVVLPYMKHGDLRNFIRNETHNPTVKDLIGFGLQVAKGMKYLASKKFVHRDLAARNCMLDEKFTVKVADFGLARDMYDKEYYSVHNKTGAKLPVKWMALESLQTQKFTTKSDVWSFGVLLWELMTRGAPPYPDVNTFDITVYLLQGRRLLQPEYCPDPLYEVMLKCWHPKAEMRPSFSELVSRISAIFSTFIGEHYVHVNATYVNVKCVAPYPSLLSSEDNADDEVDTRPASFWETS

RET(V804L) = molecular target: T7, RET(V804L) (Homo sapiens, UniProt P07949, V804L); assay: KINOMEscan ScanTK; format: binding
T7 construct: purchased Eurofins DiscoverX KINOMEscan (scanTK)
T7 sequence (P07949 29-1114 V804L): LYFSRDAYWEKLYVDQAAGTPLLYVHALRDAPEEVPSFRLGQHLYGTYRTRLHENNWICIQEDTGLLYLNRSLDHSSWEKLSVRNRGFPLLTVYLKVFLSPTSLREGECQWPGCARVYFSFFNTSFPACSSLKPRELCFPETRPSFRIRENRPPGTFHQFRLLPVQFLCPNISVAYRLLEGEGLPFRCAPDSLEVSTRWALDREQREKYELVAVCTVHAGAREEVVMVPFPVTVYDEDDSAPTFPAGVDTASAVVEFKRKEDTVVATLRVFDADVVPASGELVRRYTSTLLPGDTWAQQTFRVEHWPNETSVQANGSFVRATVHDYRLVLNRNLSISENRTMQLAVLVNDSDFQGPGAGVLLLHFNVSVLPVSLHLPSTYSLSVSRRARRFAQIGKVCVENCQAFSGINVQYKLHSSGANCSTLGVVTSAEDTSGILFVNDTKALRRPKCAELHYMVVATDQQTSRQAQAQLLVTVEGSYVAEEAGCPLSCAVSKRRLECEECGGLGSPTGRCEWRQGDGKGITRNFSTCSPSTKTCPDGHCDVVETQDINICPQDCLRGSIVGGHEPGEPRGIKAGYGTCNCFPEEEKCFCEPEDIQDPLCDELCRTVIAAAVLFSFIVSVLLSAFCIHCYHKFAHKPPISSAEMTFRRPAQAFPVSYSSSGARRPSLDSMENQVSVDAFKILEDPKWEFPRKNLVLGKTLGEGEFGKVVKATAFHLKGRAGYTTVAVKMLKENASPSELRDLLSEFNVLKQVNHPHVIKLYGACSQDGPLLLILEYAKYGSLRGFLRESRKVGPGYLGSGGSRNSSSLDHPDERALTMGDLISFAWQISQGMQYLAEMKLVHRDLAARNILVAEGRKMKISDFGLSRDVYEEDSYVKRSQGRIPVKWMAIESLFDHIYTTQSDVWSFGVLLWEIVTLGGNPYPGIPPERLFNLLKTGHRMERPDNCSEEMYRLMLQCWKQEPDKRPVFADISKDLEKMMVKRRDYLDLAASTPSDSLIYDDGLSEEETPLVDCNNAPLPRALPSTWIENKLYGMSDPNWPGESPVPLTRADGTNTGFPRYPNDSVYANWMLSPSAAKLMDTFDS

RET(V804M) = molecular target: T8, RET(V804M) (Homo sapiens, UniProt P07949, V804M); assay: KINOMEscan ScanTK; format: binding
T8 construct: purchased Eurofins DiscoverX KINOMEscan (scanTK)
T8 sequence (P07949 29-1114 V804M): as the sequence (P07949 29-1114 V804L) above, with L776M counted along it

ROS1 = molecular target: T9, ROS1 (Homo sapiens, UniProt P08922); assay: KINOMEscan ScanTK; format: binding; conditions: for %Control difference versus reference Ib at 1 µM: read-out: % difference (compound - Ib %Control)
T9 construct: purchased Eurofins DiscoverX KINOMEscan (scanTK)

TRKB = molecular target: T10, TRKB (Homo sapiens, UniProt Q16620); assay: KINOMEscan ScanTK; format: binding; conditions: TRKB
T10 construct: purchased Eurofins DiscoverX KINOMEscan (scanTK)
T10 sequence (Q16620 32-822): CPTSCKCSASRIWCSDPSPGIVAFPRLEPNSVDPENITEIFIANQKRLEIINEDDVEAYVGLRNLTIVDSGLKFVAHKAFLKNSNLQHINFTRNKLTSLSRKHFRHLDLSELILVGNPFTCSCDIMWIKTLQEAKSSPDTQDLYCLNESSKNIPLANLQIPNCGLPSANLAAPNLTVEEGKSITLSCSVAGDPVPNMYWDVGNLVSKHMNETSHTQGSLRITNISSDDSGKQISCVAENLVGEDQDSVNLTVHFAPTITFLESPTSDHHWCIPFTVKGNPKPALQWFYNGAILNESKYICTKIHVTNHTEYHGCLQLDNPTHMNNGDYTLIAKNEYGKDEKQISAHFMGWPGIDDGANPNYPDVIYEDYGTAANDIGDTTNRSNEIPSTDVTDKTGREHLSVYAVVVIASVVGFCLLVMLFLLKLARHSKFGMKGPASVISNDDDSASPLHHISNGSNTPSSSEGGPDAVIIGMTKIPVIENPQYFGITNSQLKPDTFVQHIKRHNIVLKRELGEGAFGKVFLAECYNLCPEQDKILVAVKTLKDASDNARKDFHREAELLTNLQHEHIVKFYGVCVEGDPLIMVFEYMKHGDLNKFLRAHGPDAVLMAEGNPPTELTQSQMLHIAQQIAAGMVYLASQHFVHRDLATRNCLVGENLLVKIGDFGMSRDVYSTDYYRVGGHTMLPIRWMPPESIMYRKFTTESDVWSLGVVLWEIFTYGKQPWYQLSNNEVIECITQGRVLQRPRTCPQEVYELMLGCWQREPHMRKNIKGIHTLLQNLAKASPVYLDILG

[3] = molecular target: JAK3, catalytic domain (795–1124) (Homo sapiens, UniProt P52333); assay: PhosphoSens enzymatic IC50 (AssayQuant)
JAK3, catalytic domain (795–1124), sequence (P52333 795-1124): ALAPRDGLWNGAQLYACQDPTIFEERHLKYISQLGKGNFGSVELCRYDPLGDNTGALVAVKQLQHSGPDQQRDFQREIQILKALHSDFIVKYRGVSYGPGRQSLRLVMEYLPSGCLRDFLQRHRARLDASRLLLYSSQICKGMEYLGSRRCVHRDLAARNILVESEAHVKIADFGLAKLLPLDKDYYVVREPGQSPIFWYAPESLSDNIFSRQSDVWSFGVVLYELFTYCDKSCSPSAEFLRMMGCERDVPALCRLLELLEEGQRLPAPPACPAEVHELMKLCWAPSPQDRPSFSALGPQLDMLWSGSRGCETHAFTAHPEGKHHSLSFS
From the text: Biochemical enzymatic IC50 data were generated by AssayQuant Technologies (Marlborough, MA) using the PhosphoSens Platform. […] Reaction rate versus log [inhibitor concentration] data were fitted to the four-parameter logistic equation [drawing 1]

Row | Compound | difference in % of control binding versus compound Ib at 1 µM ([1]; @1000nM) [%] | remaining binding at 1 µM ([1]; @1000nM, read-out: %Control) [%] | remaining binding at 1 µM ([1]; read-out: %Control @1000nM) [%] | difference in %Control versus reference compound Ib at 1 µM ([2]; @1000nM) [%] | remaining binding at 1 µM ([2]; @1000nM, read-out: %Control) [%] | remaining binding at 1 µM ([2]; read-out: %Control @1000nM) [%] | difference in %Control from compound Ib at 1 µM (EGFR(G719S); @1000nM) [%] | remaining binding at 1 µM (EGFR(G719S); @1000nM, read-out: %Control) [%] | remaining binding at 1 µM (EGFR(G719S); read-out: %Control @1000nM) [%] | %Control @1000nM (EGFR(L747-T751del,Sins)) [%] | % difference (compound - Ib %Control) (EGFR(L747-T751del,Sins)) [%] | %Control (EGFR(L747-T751del,Sins)) [%] | difference in %Control versus compound Ib at 1 µM (EPHA8; @1000nM) [%] | remaining binding at 1 µM (EPHA8; @1000nM, read-out: %Control) [%] | remaining binding at 1 µM (EPHA8; read-out: %Control @1000nM) [%] | %Control difference from compound Ib at 1 µM (EPHB2; @1000nM) [%] | remaining binding at 1 µM (EPHB2; @1000nM, read-out: %Control) [%] | remaining binding at 1 µM (EPHB2; read-out: %Control @1000nM) [%] | remaining binding at 1 µM (MET; @1000nM, read-out: %Control) [%] | remaining binding at 1 µM (MET; read-out: %Control @1000nM) [%] | other results
1 | COC(=O)c1cnc(S(C)(=O)=O)nc1N1CCCC(n2nc(-c3ccc(Oc4ccccc4)cc3)c3c(N)ncnc32)C1 (centres unmarked) [Compound 8b, Methyl 4-(3-(4-Amino-3-(4-phenoxyphenyl)-1H-pyrazolo[3,4-d]pyrimidin-1-yl)piperidin-1-yl)-2-(methylsulfonyl)pyrimidine-5-carboxylate] | 38 | 70 | 70 | 52 | 65 | 65 | 84.4 | 85 | 85 | 65 | 62.4 | 65 | 8 | 77 | 77 | -9 | 91 | 91 | 100 | 100 | remaining binding at 1 µM (RET(V804L); @1000nM, read-out: %Control): 90%; remaining binding at 1 µM (RET(V804L); read-out: %Control @1000nM): 90%; remaining binding at 1 µM (RET(V804M); @1000nM, read-out: %Control): 90%; remaining binding at 1 µM (RET(V804M); read-out: %Control @1000nM): 90%; %Control difference versus reference Ib at 1 µM (ROS1; @1000nM): -11%; remaining binding at 1 µM (ROS1; @1000nM, read-out: %Control): 86%; remaining binding at 1 µM (ROS1; read-out: %Control @1000nM): 86%; difference in %Control versus compound Ib at 1 µM (TRKB; @1000nM): 7%; remaining binding at 1 µM (TRKB; @1000nM, read-out: %Control): 99%; remaining binding at 1 µM (TRKB; read-out: %Control @1000nM): 99%; IC50 [3]: > 1000 nM
2 | CNC(=O)c1cnc(S(C)(=O)=O)nc1N1CCCC(n2nc(-c3ccc(Oc4ccccc4)cc3)c3c(N)ncnc32)C1 (centres unmarked) [Compound 8d, 4-(3-(4-Amino-3-(4-phenoxyphenyl)-1H-pyrazolo[3,4-d]pyrimidin-1-yl)piperidin-1-yl)-N-methyl-2-(methylsulfonyl)pyrimidine-5-carboxamide] | 22 | 54 | 54 | 13 | 26 | 26 | 77.4 | 78 | 78 | 30 | 27.4 | 30 | 24 | 93 | 93 | -1 | 99 | 99 | 100 | 100 | remaining binding at 1 µM (RET(V804L); @1000nM, read-out: %Control): 93%; remaining binding at 1 µM (RET(V804L); read-out: %Control @1000nM): 93%; remaining binding at 1 µM (RET(V804M); @1000nM, read-out: %Control): 100%; remaining binding at 1 µM (RET(V804M); read-out: %Control @1000nM): 100%; %Control difference versus reference Ib at 1 µM (ROS1; @1000nM): 3%; remaining binding at 1 µM (ROS1; @1000nM, read-out: %Control): 100%; remaining binding at 1 µM (ROS1; read-out: %Control @1000nM): 100%; difference in %Control versus compound Ib at 1 µM (TRKB; @1000nM): -5%; remaining binding at 1 µM (TRKB; @1000nM, read-out: %Control): 87%; remaining binding at 1 µM (TRKB; read-out: %Control @1000nM): 87%; IC50 [3]: > 1000 nM
